From patent publication US4681754A, “Counteracting cyclosporin organ toxicity” (Sandoz Ltd., priority 1984, dated 1987) come the findings set out here.

What all share (format): in vivo
One assay concerns OFI mice. Briefly: Test 2: immuno-suppressive activity, anti-body producing cell development in the mouse (PFC test). The note with it: Cyclosporine alone p.o. on 3 successive days. As to the method: The test is carried out employing .female. OFI mice sensibilized by i.v. administration of ca. 1×10^8 sheep erythrocytes (SRBC). The test animals are divided into groups of 5.
The spleens are removed on day 4 and a cell suspension prepared and incubated with fresh SRBC antigen on soft agar. After addition of compliment, which, together with anti-body secreted from the sensibilized cells, dissolves SRBC in the vicinity of secreting cells, plaque development is counted and compared with results obtained employing untreated control mice.

Another assay relates to OFA rats. Kind of assay: Test 3: anti-inflammatory activity, adjuvant arthritis in the rat. As to conditions: Cyclosporine alone p.o./day for 14 days. As to the method:
For this test adjuvant arthritis is induced in accordance with the method described by Pearson and Wood, "Arthr. Rheum." 2, 440 (1959). OFA .female. rats are employed as test animals. […] Administration is effected in all cases on successive days for 14 days starting on day 1 after antigen administration and inflammatory reaction is determined on day 19 after antigen administration.

For the next assay, the system named is rats (F344×WF)FI. Kind of assay: Test 1: immuno-suppressive activity, local graft-versus-host (GVH) reaction in the rat. The note with it: Cyclosporine alone p.o. on 4 successive days. As to the method: The test is carried out employing rats (F344×WF)FI sensibilized by injection into the hind-foot of spleen cells taken from .female. Wistar-Furth (WF) rats. The test animals are divided into groups of 8. […] GVH reaction is determined by measurement of increase in lymphe node weight compared with untreated controls.

In the case of Cyclosporine, the “ED50 for Cyclosporine, PFC test (plaque development)” value in the assay with OFI mice stood at 40 mg/kg. Further, the “ED50 for Cyclosporine, adjuvant arthritis (inflammatory reaction day 19)” value with OFA rats was 4.2 mg/kg. For the same substance, the “ED50 for Cyclosporine, GVH reaction (increase in lymph node weight)” value in the assay with rats (F344×WF)FI amounted to 27 mg/kg.
